These results are taken from US8759261B2, “Method and composition for enhanced hydrocarbons recovery” (Shell Oil Company, priority 2008, dated 2014).

This series in a line: Solvent addition to improve aqueous solubility of IOS blend in seawater brine. The class given is physicochemical. Here is the method: The first attempt to improve the aqueous solubility of these blends was to use small amounts of solvents added to an IOS blend and seawater brine. One percent solvent was added to 3.2% brine solutions (see Table 1 for brine composition) containing a 0.2% blend of 78% IOS 2024 and 22% IOS 2428. This particular surfactant blend had been identified for minimizing the oil-water interfacial tension between the crude oil and brine representative of a North Sea reservoir. Additions of 1% hexylene glycol, 1-hexanol, polyethylene glycol (mw=400) and sodium xylene sulfonate were studied.
A small amount of alcohol ethoxylate (8% relative to the IOS) was added to a second sample of sodium xylene sulfonate.

Turning to polyethylene glycol (mw=400), the “solubilizing of the solid in the IOS blend” value is “solubilizing most but not all of the solid”.
sodium xylene sulfonate: the “remaining precipitate after addition of nonionic” value (second sample with 1% sodium xylene sulfonate plus alcohol ethoxylate (8% relative to the IOS), 3.2% brine, 0.2% IOS blend) is “eliminated the rest of the precipitate”.
